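These data come from cells grown in 96-well plates and exposed to compound for 48 hours at five concentrations. TGI denotes the concentration required for complete inhibition of growth.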
Tests used:
Test in all cases: NCI-60 cell line screen, 48 h
[1] = test system: KM12 colon
[2] = test system: OVCAR-8 ovarian
[3] = test system: UACC-62 melanoma
[4] = test system: 786-0 renal
[5] = test system: A549 NSCLC
[6] = test system: PC-3 prostate
[7] = test system: SK-MEL-2 melanoma
[8] = test system: LOX IMVI melanoma
[9] = test system: MOLT-4 leukemia
[10] = test system: HCT-15 colon
[11] = test system: ACHN renal
[12] = test system: K-562 leukemia
[13] = test system: NCI/ADR-RES ovarian
[14] = test system: NCI-H226 lung
[15] = test system: SF-295 CNS
[16] = test system: DU-145 prostate
[17] = test system: RXF 393 renal
[18] = test system: OVCAR-3 ovarian
[19] = test system: NCI-H460 lung
[20] = test system: SNB-19 CNS
[21] = test system: UACC-257 melanoma
[22] = test system: CAKI-1 renal
[23] = test system: SN12C renal
[24] = test system: BT-549 breast
[25] = test system: HOP-62 NSCLC
[26] = test system: SK-MEL-28 melanoma
[27] = test system: HCT-116 colon
[28] = test system: MCF7 breast
[29] = test system: SNB-75 CNS
[30] = test system: UO-31 renal
[31] = test system: T-47D breast
[32] = test system: MDA-MB-231 breast
[33] = test system: NCI-H23 lung
[34] = test system: TK-10 renal
[35] = test system: OVCAR-5 ovarian
[36] = test system: SF-268 CNS
[37] = test system: SW-620 colon
[38] = test system: COLO 205 colon
[39] = test system: SR leukemia
[40] = test system: OVCAR-4 ovarian
[41] = test system: U251 CNS
[42] = test system: HS 578T breast
[43] = test system: RPMI-8226 leukemia
[44] = test system: SK-OV-3 ovarian
[45] = test system: MDA-N
[46] = test system: MDA-MB-435
[47] = test system: HCC-2998 colon
[48] = test system: M14 melanoma
[49] = test system: A498 renal
[50] = test system: CCRF-CEM leukemia
[51] = test system: SF-539 CNS
[52] = test system: HL-60(TB) leukemia
[53] = test system: SK-MEL-5 melanoma
[54] = test system: NCI-H522 lung
[55] = test system: MALME-3M melanoma
[56] = test system: IGROV1 ovarian
[57] = test system: EKVX NSCLC
[58] = test system: HT29 colon
[59] = test system: HOP-92 NSCLC

With COC(=O)C1=C(C(=O)OC)C(N(C)C)C(C(=O)OC)=C(C(=O)OC)S1 the TGI [1] was > 100 µM, the TGI [2] was > 100 µM and the TGI [3] was > 100 µM. For the same compound, the TGI [4] was > 100 µM, the TGI [5] was > 100 µM and the TGI [6] was > 100 µM. The TGI [7] was > 100 µM, the TGI [8] was > 100 µM and the TGI [9] was > 100 µM. For the same compound, the TGI [10] was > 100 µM, the TGI [11] was > 100 µM and the TGI [12] was > 100 µM. The TGI [13] was > 100 µM, the TGI [14] was > 100 µM and the TGI [15] was > 100 µM. For the same compound, the TGI [16] was > 100 µM, the TGI [17] was > 100 µM and the TGI [18] was > 100 µM. The TGI [19] was > 100 µM, the TGI [20] was > 100 µM and the TGI [21] was > 100 µM. For the same compound, the TGI [22] was > 100 µM, the TGI [23] was > 100 µM and the TGI [24] was > 100 µM. For the same compound, the TGI [25] was > 100 µM, the TGI [26] was > 100 µM and the TGI [27] was > 100 µM. The TGI [28] was > 100 µM, the TGI [29] was > 100 µM and the TGI [30] was > 100 µM. For the same compound, the TGI [31] was > 100 µM, the TGI [32] was > 100 µM and the TGI [33] was > 100 µM. The TGI [34] was > 100 µM, the TGI [35] was > 100 µM and the TGI [36] was > 100 µM. For the same compound, the TGI [37] was > 100 µM, the TGI [38] was > 100 µM and the TGI [39] was > 100 µM. The TGI [40] was > 100 µM, the TGI [41] was > 100 µM and the TGI [42] was > 100 µM. The TGI [43] was > 100 µM, the TGI [44] was > 100 µM and the TGI [45] was > 100 µM. The TGI [46] was > 100 µM, the TGI [47] was > 100 µM and the TGI [48] was > 100 µM. For the same compound, the TGI [49] was > 100 µM.
In the case of O=C(OC1CN2CCC1CC2)N(c1ccccc1)c1ccccc1 (stereo not given), the TGI [50] is reported as > 100 µM, the TGI [2] is reported as > 100 µM and the TGI [3] is reported as > 100 µM. The TGI [4] was > 100 µM, the TGI [5] was > 100 µM and the TGI [6] was > 100 µM. For the same compound, the TGI [51] was > 100 µM, the TGI [7] was > 100 µM and the TGI [8] was > 100 µM. The TGI [9] was > 100 µM, the TGI [10] was > 100 µM and the TGI [11] was > 100 µM. The TGI [12] was > 100 µM, the TGI [13] was > 100 µM and the TGI [14] was > 100 µM. The TGI [15] was > 100 µM, the TGI [16] was > 100 µM and the TGI [17] was > 100 µM. For the same compound, the TGI [18] was > 100 µM, the TGI [52] was > 100 µM and the TGI [53] was > 100 µM. For the same compound, the TGI [54] was > 100 µM, the TGI [20] was > 100 µM and the TGI [21] was > 100 µM. For the same compound, the TGI [22] was > 100 µM, the TGI [23] was > 100 µM and the TGI [24] was > 100 µM. For the same compound, the TGI [25] was > 100 µM, the TGI [26] was > 100 µM and the TGI [27] was > 100 µM. For the same compound, the TGI [28] was > 100 µM, the TGI [29] was > 100 µM and the TGI [30] was > 100 µM. For the same compound, the TGI [31] was > 100 µM, the TGI [32] was > 100 µM and the TGI [33] was > 100 µM. For the same compound, the TGI [34] was > 100 µM, the TGI [35] was > 100 µM and the TGI [36] was > 100 µM. For the same compound, the TGI [38] was > 100 µM, the TGI [55] was > 100 µM and the TGI [39] was > 100 µM. The TGI [40] was > 100 µM, the TGI [56] was > 100 µM and the TGI [41] was > 100 µM. The TGI [42] was > 100 µM, the TGI [43] was > 100 µM and the TGI [44] was > 100 µM. For the same compound, the TGI [57] was > 100 µM, the TGI [45] was > 100 µM and the TGI [58] was > 100 µM. For the same compound, the TGI [46] was > 100 µM, the TGI [59] was > 100 µM and the TGI [48] was > 100 µM. For the same compound, the TGI [49] was 78.5 µM.
CN(C)CCOc1ccc(-c2c(Oc3ccccc3)c(=O)oc3ccccc23)cc1 gave a TGI [1] of 77.8 µM, a TGI [50] of 4.94 µM and a TGI [2] of 29.6 µM. The TGI [3] was 27.2 µM, the TGI [4] was 20.5 µM and the TGI [5] was 15.3 µM. For the same compound, the TGI [6] was 23.1 µM, the TGI [51] was 27.9 µM and the TGI [7] was 28.9 µM. It also gave a TGI [8] of 25.9 µM, a TGI [9] of 20.5 µM and a TGI [10] of 22.6 µM. The TGI [11] was 24.4 µM, the TGI [12] was 23 µM and the TGI [13] was 25 µM. The TGI [14] was 31.6 µM, the TGI [15] was 17.2 µM and the TGI [16] was 29.3 µM. The TGI [17] was 17.6 µM, the TGI [18] was 26 µM and the TGI [53] was 13.1 µM. For the same compound, the TGI [54] was 24.1 µM, the TGI [19] was 29 µM and the TGI [20] was 20.8 µM. It also gave a TGI [21] of 19.5 µM, a TGI [22] of 48.7 µM and a TGI [23] of 26.9 µM. The TGI [24] was 26.6 µM, the TGI [26] was 25.5 µM and the TGI [27] was 15.5 µM. For the same compound, the TGI [28] was 17.5 µM, the TGI [29] was 23.6 µM and the TGI [30] was 19.9 µM. It also gave a TGI [31] of 44.1 µM, a TGI [32] of 18.8 µM and a TGI [33] of 28.6 µM. It also gave a TGI [34] of 26.4 µM, a TGI [35] of 29.2 µM and a TGI [36] of 25.4 µM. The TGI [37] was 23.8 µM, the TGI [38] was 24.7 µM and the TGI [55] was 25.8 µM. It also gave a TGI [39] of 19.4 µM, a TGI [40] of 59 µM and a TGI [56] of 25.2 µM. It also gave a TGI [41] of 17.3 µM, a TGI [42] of 35.2 µM and a TGI [43] of 40.8 µM. It also gave a TGI [57] of 27.5 µM, a TGI [45] of 4.7 µM and a TGI [58] of 25.4 µM. It also gave a TGI [46] of 21.2 µM, a TGI [59] of 32.7 µM and a TGI [47] of 20.8 µM. It also gave a TGI [48] of 4.63 µM and a TGI [49] of 27 µM.
In the case of Cn1c2ccccc2c2cc(N3CCCC3)c3c(c21)C(=O)N(c1ccccc1)C3=O, the TGI [1] is reported as > 100 µM, the TGI [50] is reported as > 100 µM and the TGI [2] is reported as > 100 µM. For the same compound, the TGI [3] was > 100 µM, the TGI [4] was 95.5 µM and the TGI [5] was > 100 µM. For the same compound, the TGI [6] was > 100 µM, the TGI [8] was > 100 µM and the TGI [9] was > 100 µM. The TGI [10] was > 100 µM, the TGI [11] was > 100 µM and the TGI [12] was > 100 µM. The TGI [13] was > 100 µM, the TGI [14] was > 100 µM and the TGI [15] was > 100 µM. For the same compound, the TGI [16] was > 100 µM, the TGI [17] was 91.2 µM and the TGI [18] was > 100 µM. The TGI [52] was > 100 µM, the TGI [53] was > 100 µM and the TGI [54] was > 100 µM. For the same compound, the TGI [19] was > 100 µM, the TGI [20] was > 100 µM and the TGI [21] was > 100 µM. For the same compound, the TGI [23] was > 100 µM, the TGI [24] was > 100 µM and the TGI [25] was > 100 µM. The TGI [26] was > 100 µM, the TGI [27] was > 100 µM and the TGI [28] was > 100 µM. The TGI [29] was > 100 µM, the TGI [30] was > 100 µM and the TGI [31] was > 100 µM. The TGI [32] was > 100 µM, the TGI [33] was > 100 µM and the TGI [34] was > 100 µM. The TGI [35] was > 100 µM, the TGI [36] was > 100 µM and the TGI [37] was > 100 µM. For the same compound, the TGI [38] was > 100 µM, the TGI [55] was > 100 µM and the TGI [39] was > 100 µM. For the same compound, the TGI [40] was > 100 µM, the TGI [56] was > 100 µM and the TGI [41] was > 100 µM. The TGI [42] was > 100 µM, the TGI [43] was > 100 µM and the TGI [44] was > 100 µM. The TGI [57] was > 100 µM, the TGI [45] was > 100 µM and the TGI [58] was > 100 µM. The TGI [46] was > 100 µM, the TGI [47] was > 100 µM and the TGI [48] was > 100 µM. For the same compound, the TGI [49] was > 100 µM.

Reference: PubChem BioAssay (NCI)
